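1) Cells in 96-well plates. 2) Compound, 48 h, 5 concentrations. 3) Linear interpolation between surrounding doses. 4) Unreached endpoint = highest concentration. GI50 = concentration required for 50% inhibition of growth. The concentration for full growth arrest is given as TGI.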
Key:
Assay in all cases: NCI anticancer screen, dose series, 48 h
[1] = tested on: PC-3 prostate
[2] = tested on: OVCAR-8 ovarian
[3] = tested on: SW-620 colon
[4] = tested on: SN12C renal
[5] = tested on: COLO 205 colon
[6] = tested on: MDA-MB-435
[7] = tested on: UACC-257 melanoma
[8] = tested on: SK-MEL-5 melanoma
[9] = tested on: ACHN renal
[10] = tested on: A549 NSCLC
[11] = tested on: NCI-H522 lung
[12] = tested on: SF-295 CNS
[13] = tested on: HOP-92 NSCLC
[14] = tested on: HCT-116 colon
[15] = tested on: UACC-62 melanoma
[16] = tested on: RPMI-8226 leukemia
[17] = tested on: SF-539 CNS
[18] = tested on: KM12 colon
[19] = tested on: HCT-15 colon
[20] = tested on: HCC-2998 colon
[21] = tested on: RXF 393 renal
[22] = tested on: OVCAR-3 ovarian
[23] = tested on: MCF7 breast
[24] = tested on: OVCAR-5 ovarian
[25] = tested on: SR leukemia
[26] = tested on: BT-549 breast
[27] = tested on: TK-10 renal
[28] = tested on: HL-60(TB) leukemia
[29] = tested on: HS 578T breast
[30] = tested on: LOX IMVI melanoma
[31] = tested on: MOLT-4 leukemia
[32] = tested on: M14 melanoma
[33] = tested on: SK-MEL-2 melanoma
[34] = tested on: NCI-H226 lung
[35] = tested on: HOP-62 NSCLC
[36] = tested on: HT29 colon
[37] = tested on: U251 CNS
[38] = tested on: SNB-19 CNS
[39] = tested on: NCI-H23 lung
[40] = tested on: SK-MEL-28 melanoma
[41] = tested on: SNB-75 CNS
[42] = tested on: A498 renal
[43] = tested on: T-47D breast
[44] = tested on: SK-OV-3 ovarian
[45] = tested on: EKVX NSCLC
[46] = tested on: SF-268 CNS
[47] = tested on: IGROV1 ovarian
[48] = tested on: 786-0 renal
[49] = tested on: DU-145 prostate
[50] = tested on: K-562 leukemia
[51] = tested on: NCI/ADR-RES ovarian
[52] = tested on: UO-31 renal
[53] = tested on: MALME-3M melanoma
[54] = tested on: NCI-H460 lung
[55] = tested on: CCRF-CEM leukemia
[56] = tested on: CAKI-1 renal
[57] = tested on: MDA-MB-231 breast

C#CCOc1cccc(Nc2ncc3ncn(C4CCN(C(=O)CCl)C4)c3n2)c1 (stereo not drawn)
GI50 [1]: > 62.5 µM | TGI [1]: > 62.5 µM | GI50 [2]: > 62.5 µM | TGI [2]: > 62.5 µM | GI50 [3]: 15.4 µM | TGI [3]: > 62.5 µM | GI50 [4]: 29.1 µM | TGI [4]: > 62.5 µM | GI50 [5]: > 62.5 µM | TGI [5]: > 62.5 µM | GI50 [6]: > 62.5 µM | TGI [6]: > 62.5 µM | GI50 [7]: > 62.5 µM | TGI [7]: > 62.5 µM | GI50 [8]: > 62500 nM | TGI [8]: > 62.5 µM | GI50 [9]: 14.6 µM | TGI [9]: 46.2 µM | GI50 [10]: > 62.5 µM | TGI [10]: > 62.5 µM | GI50 [11]: 7.08 µM | TGI [11]: 18.1 µM | GI50 [12]: > 62.5 µM | TGI [12]: > 62.5 µM | GI50 [13]: > 62.5 µM | TGI [13]: > 62.5 µM | GI50 [14]: 21.5 µM | TGI [14]: > 62.5 µM | GI50 [15]: > 62.5 µM | TGI [15]: > 62.5 µM | GI50 [16]: > 62.5 µM | TGI [16]: > 62.5 µM | GI50 [17]: > 62.5 µM | TGI [17]: > 62.5 µM | GI50 [18]: > 62.5 µM | TGI [18]: > 62.5 µM | GI50 [19]: > 62.5 µM | TGI [19]: > 62.5 µM | GI50 [20]: > 62.5 µM | TGI [20]: > 62.5 µM | GI50 [21]: > 62500 nM | TGI [21]: > 62.5 µM | GI50 [22]: 37.8 µM | TGI [22]: > 62.5 µM | GI50 [23]: 59.2 µM | TGI [23]: > 62.5 µM | GI50 [24]: > 62.5 µM | TGI [24]: > 62.5 µM | GI50 [25]: 7.72 µM | TGI [25]: > 62.5 µM | GI50 [26]: 18.3 µM | TGI [26]: > 62.5 µM | GI50 [27]: > 62.5 µM | TGI [27]: > 62.5 µM | GI50 [28]: 22.7 µM | TGI [28]: > 62.5 µM | GI50 [29]: > 62.5 µM | TGI [29]: > 62.5 µM | GI50 [30]: 13.2 µM | TGI [30]: > 62.5 µM | GI50 [31]: 11.3 µM | TGI [31]: > 62.5 µM | GI50 [32]: > 62.5 µM | TGI [32]: > 62.5 µM | GI50 [33]: > 62500 nM | TGI [33]: > 62.5 µM | GI50 [34]: > 62.5 µM | TGI [34]: > 62.5 µM | GI50 [35]: > 62.5 µM | TGI [35]: > 62.5 µM | GI50 [36]: > 62.5 µM | TGI [36]: > 62.5 µM | GI50 [37]: > 62.5 µM | TGI [37]: > 62.5 µM | GI50 [38]: > 62.5 µM | TGI [38]: > 62.5 µM | GI50 [39]: > 62.5 µM | TGI [39]: > 62.5 µM | GI50 [40]: > 62.5 µM | TGI [40]: > 62.5 µM | GI50 [41]: > 62.5 µM | TGI [41]: > 62.5 µM | GI50 [42]: > 62500 nM | TGI [42]: > 62.5 µM | GI50 [43]: > 62.5 µM | TGI [43]: > 62.5 µM | GI50 [44]: > 62.5 µM | TGI [44]: > 62.5 µM | GI50 [45]: > 62.5 µM | TGI [45]: > 62.5 µM | GI50 [46]: > 62.5 µM | TGI [46]: > 62.5 µM | GI50 [47]: 6.79 µM | TGI [47]: > 62.5 µM | GI50 [48]: > 62.5 µM | TGI [48]: > 62.5 µM | GI50 [49]: > 62.5 µM | TGI [49]: > 62.5 µM | GI50 [50]: 17.9 µM | TGI [50]: > 62.5 µM | GI50 [51]: > 62.5 µM | TGI [51]: > 62.5 µM | GI50 [52]: 37.4 µM | TGI [52]: > 62.5 µM | GI50 [53]: 8.78 µM | TGI [53]: 56.2 µM | GI50 [54]: > 62.5 µM | TGI [54]: > 62.5 µM | GI50 [55]: 2.46 µM | TGI [55]: > 62.5 µM | GI50 [56]: > 62.5 µM | TGI [56]: > 62.5 µM | GI50 [57]: > 62.5 µM | TGI [57]: > 62.5 µM

N#CC1CCc2c(c(-c3cn[nH]c3C(F)(F)F)nc3c(F)cc4[nH]ncc4c23)C1 (stereo not drawn)
GI50 [1]: 9.19 µM | TGI [1]: > 100 µM | GI50 [2]: 13.7 µM | TGI [2]: > 100 µM | GI50 [3]: 3.47 µM | TGI [3]: 38 µM | GI50 [4]: 4.22 µM | TGI [4]: 68.4 µM | GI50 [5]: 4.23 µM | TGI [5]: 16.1 µM | GI50 [6]: 4.43 µM | TGI [6]: 41.1 µM | GI50 [7]: 12.9 µM | TGI [7]: 74.5 µM | GI50 [8]: 2830 nM | TGI [8]: 9.79 µM | GI50 [9]: 8.21 µM | TGI [9]: 75.1 µM | GI50 [10]: 21.2 µM | TGI [10]: > 100 µM | GI50 [11]: 2.31 µM | TGI [11]: 8.61 µM | GI50 [12]: 14 µM | TGI [12]: 46.2 µM | GI50 [13]: 4.42 µM | TGI [13]: 26.5 µM | GI50 [14]: 3.15 µM | TGI [14]: 19.6 µM | GI50 [15]: 3.43 µM | TGI [15]: 11.5 µM | GI50 [16]: 8.4 µM | TGI [16]: 78.1 µM | GI50 [17]: 3.43 µM | TGI [17]: 15.4 µM | GI50 [18]: 3.34 µM | TGI [18]: 41.9 µM | GI50 [19]: 53.1 µM | TGI [19]: > 100 µM | GI50 [20]: 11 µM | TGI [20]: 28.1 µM | GI50 [21]: 2390 nM | TGI [21]: 7.3 µM | GI50 [22]: 4.89 µM | TGI [22]: 42.6 µM | GI50 [23]: 3.5 µM | TGI [23]: 47.4 µM | GI50 [24]: 13.7 µM | TGI [24]: 57.7 µM | GI50 [25]: 2.92 µM | TGI [25]: 59.1 µM | GI50 [26]: 3.16 µM | TGI [26]: 12.9 µM | GI50 [27]: 6.28 µM | TGI [27]: 57.9 µM | GI50 [28]: 2.56 µM | TGI [28]: 16.9 µM | GI50 [29]: 3.16 µM | TGI [29]: 11.5 µM | GI50 [30]: 3.45 µM | TGI [30]: 15.3 µM | GI50 [31]: 3.49 µM | TGI [31]: 42.7 µM | GI50 [32]: 3.88 µM | TGI [32]: 21.7 µM | GI50 [33]: 2400 nM | TGI [33]: 6.78 µM | GI50 [34]: 16 µM | TGI [34]: > 100 µM | GI50 [35]: 6.09 µM | TGI [35]: 33.7 µM | GI50 [36]: 9.6 µM | TGI [36]: > 100 µM | GI50 [37]: 15.1 µM | TGI [37]: > 100 µM | GI50 [38]: 5.53 µM | TGI [38]: 61.5 µM | GI50 [39]: 5.36 µM | TGI [39]: 28.4 µM | GI50 [40]: 4.43 µM | TGI [40]: 30.4 µM | GI50 [41]: 3.38 µM | TGI [41]: 8.96 µM | GI50 [42]: 2090 nM | TGI [42]: 6.75 µM | GI50 [43]: 3.06 µM | TGI [43]: 26.1 µM | GI50 [44]: 3.21 µM | TGI [44]: 10.5 µM | GI50 [45]: 5.93 µM | TGI [45]: 28.2 µM | GI50 [46]: 5.02 µM | TGI [46]: 27.4 µM | GI50 [47]: 2.46 µM | TGI [47]: 8.79 µM | GI50 [48]: 10.9 µM | TGI [48]: 59.4 µM | GI50 [49]: 9.06 µM | TGI [49]: 80.3 µM | GI50 [50]: 9.53 µM | TGI [50]: > 100 µM | GI50 [51]: > 100 µM | TGI [51]: > 100 µM | GI50 [52]: 9.64 µM | TGI [52]: 36.6 µM | GI50 [53]: 3.31 µM | TGI [53]: 11.5 µM | GI50 [54]: 11.8 µM | TGI [54]: 38.8 µM | GI50 [55]: 4.06 µM | TGI [55]: > 100 µM | GI50 [56]: 18.6 µM | TGI [56]: > 100 µM | GI50 [57]: 4.96 µM | TGI [57]: 38.1 µM

— PubChem BioAssay (NCI)
